Patent publication US20240024273A1, “TOPICAL ADMINISTRATION OF 2-(DIETHYLAMINO)ETHYL 2-(4-ISOBUTYLPHENYL)PROPRIONATE FOR TREATMENT OF DISEASES” (TECHFIELDS PHARMA CO., LTD., priority 2020, published 2024)

What was measured:
[1] = test system: osteoarthritis of the knee; assay: Second Phase 2 study: WOMAC (VAS) pain subscale score; format: in vivo, human
Source text: (§1) This is a Phase 2, multicenter, randomized, double blind (within dose), Ibuprofen-placebo controlled, parallel group, dose range finding study to evaluate the efficacy, safety, and PK of 2-(diethylamino)ethyl 2-(4-isobutylphenyl)propionate spray in adult subjects with clinically symptomatic OA of the knee. For subjects with bilateral knee pain, both knees will be treated, but the most symptomatic knee (ie, the most painful knee as measured by the Western Ontario and McMaster University Osteoarthritis Index [WOMAC® 3.1] pain subscale score at Screening) will be designated as the target knee for efficacy analyses. For subjects with unilateral knee pain, only the symptomatic (target) knee will be treated.
(§2) The VAS version of the WOMAC will be used for the Primary and Secondary Efficacy Endpoints. Efficacy endpoints will be assessed at Screening and Baseline (Day 1) and at the Week 2, Week 4, Week 8, and Week 12/EOS visits.
The Primary Efficacy Endpoint is the change from Baseline in the WOMAC (VAS) pain subscale score for the target knee at […] of treatment.
(§3) 4.9.2. Secondary Efficacy Endpoints: • 1. Change from Baseline in the WOMAC (VAS) pain subscale score for the target knee at 2, 8, and 12 weeks of treatment; • 2. Change from Baseline in the WOMAC (VAS) stiffness subscale scores for the target knee and WOMAC (VAS) functional ability subscale scores at 2, 4, 8, and 12 weeks of treatment; • 3. Change from Baseline in the overall WOMAC (VAS) score at 2, 4, 8, and 12 weeks of treatment; • 4. Subject's global assessment of disease status of the target knee at 2, 4, 8, and 12 weeks of treatment; • 5. Subject's global assessment of response to therapy of the target knee at 2, 4, 8, and 12 weeks of treatment; • 6. Amount of rescue medication (acetaminophen) consumed per day for target knee pain.
The Primary Efficacy Endpoint is change from Baseline in the WOMAC (VAS) pain subscale score for the target knee at 4 weeks of treatment, and will be analyzed using an analysis of covariance (ANCOVA). Treatment will be included as a fixed class effect and WOMAC Baseline pain subscale score as covariates. The primary comparisons of interest will be the difference between active Group A (4.375 mg 2-(diethylamino)ethyl 2-(4-isobutylphenyl)propionate/knee) and combined placebo, active Group B (8.75 mg 2-(diethylamino)ethyl 2-(4-isobutylphenyl)propionate/knee) and combined placebo, and active Group C (17.5 mg 2-(diethylamino)ethyl 2-(4-isobutylphenyl)propionate/knee) and combined placebo.

[2] = test system: osteoarthritis of the knee; assay: Second Phase 2 study: WOMAC difficulty performing daily activities (functional ability) subscale score; format: in vivo, human
Source text: as §1, §2, §3
The Secondary Efficacy Endpoints, change from Baseline in the WOMAC subscale scores for pain, stiffness, and functional ability, and overall WOMAC score at 2, 4, 8, and 12 weeks of treatment, will be analyzed using the same methods as for the Primary Efficacy Endpoint.

[3] = 17.5 mg/knee BID, Week 12, first 130 subjects
[4] = 4.375 mg/knee BID (n = 23), first 130 subjects
[5] = 8.75 mg/knee BID (n = 24), first 130 subjects
[6] = 17.5 mg/knee BID (n = 19), first 130 subjects
[7] = Week 12, 4.375 mg/knee BID (n = 23), first 130 subjects
[8] = Week 12, 8.75 mg/knee BID (n = 24), first 130 subjects
[9] = Week 12, 17.5 mg/knee BID (n = 19), first 130 subjects
[10] = all subjects, 4.375 mg/knee BID, n = 49, Week 12
[11] = all subjects, 8.75 mg/knee BID, n = 54, Week 12
[12] = all subjects, 17.5 mg/knee BID, n = 52, Week 12

CCN(CC)CCOC(=O)C(C)c1ccc(CC(C)C)cc1 (stereo not drawn) [2-(diethylamino)ethyl 2-(4-isobutylphenyl)propionate]
WOMAC pain, difference from oral ibuprofen (3×400 mg/day) [1, 3]: −14.5 mm | WOMAC pain, difference from placebo [1, 3]: −15.0 mm | WOMAC Pain Subscale Score, Day 1, Avg. ([1]; Avg. of all patients, blinded, Middle Dose (4 spray/knee, 17.5 mg/knee) Cohort, Day 1): 61.0 | WOMAC Pain Subscale Score, Follow-up, Avg. ([1]; Avg. of all patients, blinded, Middle Dose (4 spray/knee, 17.5 mg/knee) Cohort, Follow-up): 38.9 | WOMAC Pain Subscale Score, Week 2, Avg. ([1]; Avg. of all patients, blinded, Middle Dose (4 spray/knee, 17.5 mg/knee) Cohort, Week 2): 46.0 | WOMAC Pain Subscale Score, Week 4, Avg. ([1]; Avg. of all patients, blinded, Middle Dose (4 spray/knee, 17.5 mg/knee) Cohort, Week 4): 40.5 | WOMAC Pain Subscale Score, Week 8, Avg. ([1]; Avg. of all patients, blinded, Middle Dose (4 spray/knee, 17.5 mg/knee) Cohort, Week 8): 35.9 | WOMAC Pain Subscale Score, Week 12, Avg. ([1]; Avg. of all patients, blinded, Middle Dose (4 spray/knee, 17.5 mg/knee) Cohort, Week 12): 34.5 | WOMAC Pain Subscale Scores, Baseline (LS Mean) [1, 4]: 60.0 mm | WOMAC Pain Subscale Scores, Baseline (LS Mean) [1, 5]: 61.0 mm | WOMAC Pain Subscale Scores, Baseline (LS Mean) [1, 6]: 64.1 mm | WOMAC Pain Subscale Scores, % of improvement from Oral Ibuprofen [1, 7]: −9.6% | WOMAC Pain Subscale Scores, % of improvement from Placebo [1, 7]: −8.7% | WOMAC Pain Subscale Scores, % of improvement from baseline [1, 7]: −41.8% | WOMAC Pain Subscale Scores, Changes from Baseline (LS Mean) [1, 7]: −25.7 mm | WOMAC Pain Subscale Scores, Different from oral ibuprofen (LS Mean) [1, 7]: −4.0 mm | WOMAC Pain Subscale Scores, Different from placebo (LS Mean) [1, 7]: −4.3 mm | WOMAC Pain Subscale Scores, Week 12 (LS Mean) [1, 7]: 34.3 mm | WOMAC Pain Subscale Scores, % of improvement from Oral Ibuprofen [1, 8]: −13.2% | WOMAC Pain Subscale Scores, % of improvement from Placebo [1, 8]: −12.3% | WOMAC Pain Subscale Scores, % of improvement from baseline [1, 8]: −45.4% | WOMAC Pain Subscale Scores, Changes from Baseline (LS Mean) [1, 8]: −27.7 mm | WOMAC Pain Subscale Scores, Different from oral ibuprofen (LS Mean) [1, 8]: −6.1 mm | WOMAC Pain Subscale Scores, Different from placebo (LS Mean) [1, 8]: −6.6 mm | WOMAC Pain Subscale Scores, Week 12 (LS Mean) [1, 8]: 33.3 mm | WOMAC Pain Subscale Scores, % of improvement from Oral Ibuprofen [1, 9]: −24.3% | WOMAC Pain Subscale Scores, % of improvement from Placebo [1, 9]: −23.4% | WOMAC Pain Subscale Scores, % of improvement from baseline [1, 9]: −56.5% | WOMAC Pain Subscale Scores, Changes from Baseline (LS Mean) [1, 9]: −36.2 mm | WOMAC Pain Subscale Scores, Different from oral ibuprofen (LS Mean) [1, 9]: −14.5 mm | WOMAC Pain Subscale Scores, Different from placebo (LS Mean) [1, 9]: −15.0 mm | WOMAC Pain Subscale Scores, Week 12 (LS Mean) [1, 9]: 27.9 mm | WOMAC Pain Subscale Scores, % of improvement from Oral Ibuprofen [1, 10]: −0.7% | WOMAC Pain Subscale Scores, % of improvement from Placebo [1, 10]: −5.2% | WOMAC Pain Subscale Scores, % of improvement from baseline [1, 10]: −41.9% | WOMAC Pain Subscale Scores, Changes from Baseline (LS Mean) [1, 10]: −25.6 mm | WOMAC Pain Subscale Scores, Week 12 (LS Mean) [1, 10]: 35.5 mm | WOMAC Pain Subscale Scores, % of improvement from Oral Ibuprofen [1, 11]: −4.9% | WOMAC Pain Subscale Scores, % of improvement from Placebo [1, 11]: −9.4% | WOMAC Pain Subscale Scores, % of improvement from baseline [1, 11]: −46.1% | WOMAC Pain Subscale Scores, Changes from Baseline (LS Mean) [1, 11]: −28.6 mm | WOMAC Pain Subscale Scores, Different from oral ibuprofen (LS Mean) [1, 11]: −3.2 mm | WOMAC Pain Subscale Scores, Different from placebo (LS Mean) [1, 11]: −6.0 mm | WOMAC Pain Subscale Scores, Week 12 (LS Mean) [1, 11]: 33.4 mm | WOMAC Pain Subscale Scores, % of improvement from Oral Ibuprofen [1, 12]: −9.8% | WOMAC Pain Subscale Scores, % of improvement from Placebo [1, 12]: −14.3% | WOMAC Pain Subscale Scores, % of improvement from baseline [1, 12]: −51.0% | WOMAC Pain Subscale Scores, Changes from Baseline (LS Mean) [1, 12]: −31.7 mm | WOMAC Pain Subscale Scores, Different from oral ibuprofen (LS Mean) [1, 12]: −6.3 mm | WOMAC Pain Subscale Scores, Different from placebo (LS Mean) [1, 12]: −9.1 mm | WOMAC Pain Subscale Scores, Week 12 (LS Mean) [1, 12]: 30.5 mm | WOMAC functional ability, difference from oral ibuprofen [2, 3]: −15.6 | WOMAC functional ability, difference from placebo [2, 3]: −19.1 | WOMAC Difficulty Performing Daily Activities Subscale Score, Day 1, Avg. ([2]; Avg. of all patients (blinded), Low Dose (2 spray/knee, 8.75 mg/knee) Cohort, Day 1): 60.4 | WOMAC Difficulty Performing Daily Activities Subscale Score, Follow-up, Avg. ([2]; Avg. of all patients (blinded), Low Dose (2 spray/knee, 8.75 mg/knee) Cohort, Follow-up): 40.1 | WOMAC Difficulty Performing Daily Activities Subscale Score, Week 2, Avg. ([2]; Avg. of all patients (blinded), Low Dose (2 spray/knee, 8.75 mg/knee) Cohort, Week 2): 49.8 | WOMAC Difficulty Performing Daily Activities Subscale Score, Week 4, Avg. ([2]; Avg. of all patients (blinded), Low Dose (2 spray/knee, 8.75 mg/knee) Cohort, Week 4): 44.0 | WOMAC Difficulty Performing Daily Activities Subscale Score, Week 8, Avg. ([2]; Avg. of all patients (blinded), Low Dose (2 spray/knee, 8.75 mg/knee) Cohort, Week 8): 41.1 | WOMAC Difficulty Performing Daily Activities Subscale Score, Week 12, Avg. ([2]; Avg. of all patients (blinded), Low Dose (2 spray/knee, 8.75 mg/knee) Cohort, Week 12): 39.8 | WOMAC Difficulty Performing Daily Activities Subscale Scores, Baseline (LS Mean) [2, 4]: 60.2 mm | WOMAC Difficulty Performing Daily Activities Subscale Scores, Baseline (LS Mean) [2, 5]: 61.6 mm | WOMAC Difficulty Performing Daily Activities Subscale Scores, Baseline (LS Mean) [2, 6]: 63.9 mm | WOMAC Difficulty Performing Daily Activities Subscale Scores, % of improvement from Oral Ibuprofen [2, 7]: −10.9% | WOMAC Difficulty Performing Daily Activities Subscale Scores, % of improvement from Placebo [2, 7]: −14.2% | WOMAC Difficulty Performing Daily Activities Subscale Scores, % of improvement from baseline [2, 7]: −43.9% | WOMAC Difficulty Performing Daily Activities Subscale Scores, Changes from Baseline (LS Mean) [2, 7]: −26.4 mm | WOMAC Difficulty Performing Daily Activities Subscale Scores, Different from oral ibuprofen (LS Mean) [2, 7]: −4.8 mm | WOMAC Difficulty Performing Daily Activities Subscale Scores, Different from placebo (LS Mean) [2, 7]: −8.3 mm | WOMAC Difficulty Performing Daily Activities Subscale Scores, Week 12 (LS Mean) [2, 7]: 33.8 mm | WOMAC Difficulty Performing Daily Activities Subscale Scores, % of improvement from Oral Ibuprofen [2, 8]: −12.5% | WOMAC Difficulty Performing Daily Activities Subscale Scores, % of improvement from Placebo [2, 8]: −15.9% | WOMAC Difficulty Performing Daily Activities Subscale Scores, % of improvement from baseline [2, 8]: −45.6% | WOMAC Difficulty Performing Daily Activities Subscale Scores, Changes from Baseline (LS Mean) [2, 8]: −28.1 mm | WOMAC Difficulty Performing Daily Activities Subscale Scores, Different from oral ibuprofen (LS Mean) [2, 8]: −6.6 mm | WOMAC Difficulty Performing Daily Activities Subscale Scores, Different from placebo (LS Mean) [2, 8]: −10.0 mm | WOMAC Difficulty Performing Daily Activities Subscale Scores, Week 12 (LS Mean) [2, 8]: 33.4 mm | WOMAC Difficulty Performing Daily Activities Subscale Scores, % of improvement from Oral Ibuprofen [2, 9]: −25.2% | WOMAC Difficulty Performing Daily Activities Subscale Scores, % of improvement from Placebo [2, 9]: −28.5% | WOMAC Difficulty Performing Daily Activities Subscale Scores, % of improvement from baseline [2, 9]: −58.2% | WOMAC Difficulty Performing Daily Activities Subscale Scores, Changes from Baseline (LS Mean) [2, 9]: −37.2 mm | WOMAC Difficulty Performing Daily Activities Subscale Scores, Different from oral ibuprofen (LS Mean) [2, 9]: −15.6 mm
